Assay results: patent EP4603105A1, “PHARMACEUTICAL COMPOSITION CONTAINING CYCLIC COMPOUND HAVING SELECTIVE KRAS INHIBITORY EFFECT AGAINST HRAS AND NRAS” (CHUGAI SEIYAKU KABUSHIKI KAISHA, priority 2022, dated 2024)
Read-outs that look alike come from different tables or passages of the source.

Assays:
[1] = target: GDP-bound KRAS wild-type protein (Homo sapiens, UniProt P01116); assay: Binding to KRAS by surface plasmon resonance (SPR), dissociation constant KD
Outline: (§1)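 Running buffer contained 10 µM GDP and 10 mM MgCl2 to keep RAS in the GDP state, with 4% DMSO at pH 7.4. Compounds were flowed at 100 µL/min in 75 s steps of rising concentration over captured biotin-Avi RAS at 30°C. Sensorgrams were fitted 1:1 for KD.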

[2] = target: GDP-bound NRAS wild-type protein (Homo sapiens, UniProt P01111); assay: Binding to NRAS by surface plasmon resonance (SPR), KD and KD ratio to KRAS
Outline: as §1

HRAS wild-type protein = HRAS wild-type protein (Homo sapiens, UniProt P01112); assay: Binding to HRAS by surface plasmon resonance (SPR), KD and KD ratio to KRAS
Outline: as §1

[3] = tested on: human lung cancer strain NCI-H441; assay: NCI-H441 cell proliferation inhibitory activity (CellTiter-Glo, 4 days); assay type: cell-based; conditions: read-out: NCl-H441 IC50
Outline: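 Step one: dispense the test compound in serial DMSO dilutions. Step three: add the reagent and measure […].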

[4] = ratio of KD for GDP-bound NRAS wild-type protein to KD for KRAS
[5] = ratio of KD for HRAS wild-type protein to KD for KRAS
[6] = Single Cycle Kinetics, 1:1 binding model
[7] = ratio of KD with respect to GDP-bound NRAS wild-type protein to KD with respect to KRAS
[8] = ratio of KD with respect to HRAS wild-type protein to KD with respect to KRAS
[9] = 50% proliferation inhibitory concentration, four days

Sequence of GDP-bound KRAS wild-type protein (P01116 1-188 isoform P01116-2): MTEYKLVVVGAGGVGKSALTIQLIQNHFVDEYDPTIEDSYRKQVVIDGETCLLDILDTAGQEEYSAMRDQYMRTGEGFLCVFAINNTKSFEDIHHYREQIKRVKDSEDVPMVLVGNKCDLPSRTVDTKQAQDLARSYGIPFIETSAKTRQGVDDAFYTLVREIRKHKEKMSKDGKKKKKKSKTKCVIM
Sequence of GDP-bound NRAS wild-type protein (P01111 whole entry): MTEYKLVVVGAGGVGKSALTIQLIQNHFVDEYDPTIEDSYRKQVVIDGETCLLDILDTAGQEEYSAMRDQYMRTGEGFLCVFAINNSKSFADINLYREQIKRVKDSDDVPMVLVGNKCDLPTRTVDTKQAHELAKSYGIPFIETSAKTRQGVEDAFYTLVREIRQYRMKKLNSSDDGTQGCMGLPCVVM
Sequence of HRAS wild-type protein (P01112 whole entry): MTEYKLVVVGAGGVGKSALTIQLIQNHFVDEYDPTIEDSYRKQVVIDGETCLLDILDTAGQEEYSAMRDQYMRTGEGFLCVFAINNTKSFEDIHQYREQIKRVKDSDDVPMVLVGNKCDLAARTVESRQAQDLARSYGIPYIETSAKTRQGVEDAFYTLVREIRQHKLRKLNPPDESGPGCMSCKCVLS

Kd ([1]; 1:1 binding model) [nM] | IC50 ([3]; NCI-H441 cells, 4 days) [nM] | Kd ([1]; Single Cycle Kinetics) [nM] | Kd [1, 6] [nM] | IC50 [3, 9] [nM] | Structure (SMILES) | NRAS /KRAS [2, 4] | HRAS /KRAS (HRAS wild-type protein; [5]) | NRAS /KRAS [2, 7] | HRAS /KRAS (HRAS wild-type protein; [8])
1.1 | 172 |  |  |  | CCOC[C@H]1C(=O)N[C@@H]([C@@H](C)CC)C(=O)N2CCC[C@H]2C(=O)N(C)[C@H]2C/C=C\CCN(C2=O)[C@@H](CC2CCCCC2)C(=O)N(C)CC(=O)N[C@@H](CCc2ccc(C(F)(F)F)c(OC)c2)C(=O)N2C[C@@H](C)C[C@H]2C(=O)N(C)C2(CCC2)C(=O)N(C)[C@@H](C2CCCC2)C(=O)N(C)[C@H](C(=O)N(C)C)CC(=O)N1C [PP2375] | A (a compound having 10 or more and less than 20 is denoted as A) | B (a compound having 3 or more and less than 10 is denoted as B) |  | 
 | 13.2 | 0.42 |  |  | CCC[C@H]1C(=O)N[C@@H]([C@@H](C)CC)C(=O)N(C)CC(=O)N(C)[C@H]2C/C=C\CCN(C2=O)[C@@H](Cc2ccc(C)cc2)C(=O)N(C)CC(=O)N[C@@H](CCc2cc(F)c(C(F)(F)F)c(F)c2)C(=O)N2CC3(CC3)C[C@H]2C(=O)NC2(CCC2)C(=O)N(C)[C@@H](C(CC)CC)C(=O)N(C)[C@H](C(=O)N(C)C)CC(=O)N1C [PP3420] | AA (a compound having 20 or more is denoted as AA) | A (a compound having 10 or more and less than 20 is denoted as A) |  | 
1.6 | 195 |  |  |  | CCCOC[C@H]1C(=O)N[C@@H]([C@@H](C)CC)C(=O)N(C)CC(=O)N(C)[C@H]2C/C=C\CCN(C2=O)[C@@H](CC2CCC(F)(F)CC2)C(=O)N(C)CC(=O)N[C@@H](CCc2ccc(C(F)(F)F)c(OC)c2)C(=O)N2C[C@@H](C)C[C@H]2C(=O)NC2(CC(C)(C)C2)C(=O)N(C)[C@@H](C(CC)CC)C(=O)N(C)[C@H](C(=O)N(C)C)CC(=O)N1C [PP2483] | A (a compound having 10 or more and less than 20 is denoted as A) | A (a compound having 10 or more and less than 20 is denoted as A) |  | 
0.77 | 64 |  |  |  | CCC[C@H]1C(=O)N[C@@H]([C@@H](C)CC)C(=O)N(C2CC2)CC(=O)N(C)[C@H]2C/C=C\CCN(C2=O)[C@@H](Cc2ccc(C(F)F)cc2)C(=O)N(C)CC(=O)N[C@@H](CCc2cc(F)c(C(F)(F)F)c(F)c2)C(=O)N2C[C@H](OC(C)C)C[C@H]2C(=O)NC2(CC(C)(C)C2)C(=O)N(C)[C@@H](C(CC)CC)C(=O)N(C)[C@H](C(=O)N(C)C)CC(=O)N1C [PP2529] | AA (a compound having 20 or more is denoted as AA) | A (a compound having 10 or more and less than 20 is denoted as A) |  | 
1.8 | 39.6 |  |  |  | CCC(CC)[C@H]1C(=O)N(C)[C@H](C(=O)N(C)C)CC(=O)N(C)[C@@H](CC2CC2)C(=O)N[C@@H]([C@@H](C)CC)C(=O)N(C)CC(=O)N(C)[C@H]2C/C=C\CCN(C2=O)[C@@H](CC2CCC(F)(F)CC2)C(=O)N(C)CC(=O)N[C@@H](CCc2ccc(C(F)(F)F)c(OC)c2)C(=O)N2C[C@@H](C)C[C@H]2C(=O)NC2(CC(C)(C)C2)C(=O)N1C [PP2494] | A (a compound having 10 or more and less than 20 is denoted as A) | A (a compound having 10 or more and less than 20 is denoted as A) |  | 
 |  |  | 0.082 | 4.2 | CC[C@H](C)[C@@H]1NC(=O)[C@H](CC2CCC2)N(C)C(=O)C[C@@H](C(=O)N(C)C)N(C)C(=O)[C@H](C2CCCC2)N(C)C(=O)C2(CCCC2)NC(=O)[C@@H]2CCCN2C(=O)[C@H](CCc2cc(F)c(C(F)(F)F)c(F)c2)NC(=O)CN(C)C(=O)[C@H](Cc2ccc(C(F)(F)F)cc2)N2C[C@H](C)CC[C@@H](C2=O)N(C)C(=O)CN(C)C1=O [PP1386] |  |  | B (a compound having 3 or more and less than 10 is denoted as B) | B (a compound having 3 or more and less than 10 is denoted as B)
 |  |  | 0.045 | 12.2 | CCOC[C@H]1C(=O)N[C@@H]([C@@H](C)CC)C(=O)N(C)CC(=O)N(C)[C@H]2C/C=C\CCN(C2=O)[C@@H](Cc2ccc(C(F)(F)F)cc2)C(=O)N(C)CC(=O)N[C@@H](CCc2cc(F)c(C(F)(F)F)c(F)c2)C(=O)N2C[C@H](OCC)C[C@H]2C(=O)NC2(CCC2)C(=O)N(C)[C@@H](C2CCCC2)C(=O)N(C)[C@H](C(=O)N(C)C)CC(=O)N1C [PP1266] |  |  | A (a compound having 10 or more and less than 20 is denoted as A) | A (a compound having 10 or more and less than 20 is denoted as A)
 |  |  | 0.066 | 86.8 | CC[C@H](C)[C@@H]1NC(=O)[C@H](CC)N(C)C(=O)C[C@@H](C(=O)N(C)C)N(C)C(=O)[C@H](C2CCCC2)N(C)C(=O)C2(CCC2)NC(=O)[C@@H]2C[C@H](F)CN2C(=O)[C@H](CCc2cc(F)c(C(F)(F)F)c(F)c2)NC(=O)CN(C)C(=O)[C@H](Cc2ccc(C(F)(F)F)cc2)N2CC/C=C\C[C@@H](C2=O)N(C)C(=O)CN(C)C1=O [PP1132] |  |  | A (a compound having 10 or more and less than 20 is denoted as A) | B (a compound having 3 or more and less than 10 is denoted as B)
 | 6.8 | 0.14 |  |  | CCC[C@H]1C(=O)N[C@@H]([C@@H](C)CC)C(=O)N2CC[C@H]2C(=O)N(C)[C@H]2C/C(F)=C\CCN(C2=O)[C@@H](Cc2ccc(C)cc2)C(=O)N(C)CC(=O)N[C@@H](CCc2ccc(C(F)(F)F)c(OC)c2)C(=O)N2C[C@H](OCC)C[C@H]2C(=O)N(C)C2(CCC2)C(=O)N(C)[C@@H](C2CCCC2)C(=O)N(C)[C@H](C(=O)N(C)C)CC(=O)N1C [PP3530] | B (a compound having 3 or more and less than 10 is denoted as B) | B (a compound having 3 or more and less than 10 is denoted as B) |  | 
 |  |  | 0.2 | 22.2 | CCO[C@@H]1C[C@H]2C(=O)NC3(CCC3)C(=O)N(C)[C@@H](C3CCCC3)C(=O)N(C)[C@H](C(=O)N(C)C)CC(=O)N(C)[C@@H](CC3CC3)C(=O)N[C@@H]([C@@H](C)CC)C(=O)N(C)CC(=O)N(C)[C@H]3C/C=C\CCN(C3=O)[C@@H](Cc3ccc(C(F)(F)F)cc3)C(=O)N(C)CC(=O)N[C@@H](CCc3ccc(Cl)c(Cl)c3)C(=O)N2C1 [PP1253] |  |  | A (a compound having 10 or more and less than 20 is denoted as A) | A (a compound having 10 or more and less than 20 is denoted as A)
 | 20.3 | 0.68 |  |  | CCC[C@H]1C(=O)N[C@@H](C2CCCC2)C(=O)N(C)CC(=O)N(C)[C@H]2C/C=C\CCN(C2=O)[C@@H](Cc2ccc(C(F)(F)F)cc2)C(=O)N(C)CC(=O)N[C@@H](CCc2cc(F)c(C(F)(F)F)c(F)c2)C(=O)N2CC3(CC3)C[C@H]2C(=O)N(C)C2(CCC2)C(=O)N(C)[C@@H](C(CC)CC)C(=O)N(C)[C@H](C(=O)N(C)C)CC(=O)N1C [PP3305] | AA (a compound having 20 or more is denoted as AA) | A (a compound having 10 or more and less than 20 is denoted as A) |  | 
 | 15.9 | 0.076 |  |  | CCO[C@@H]1C[C@H]2C(=O)NC3(CC(C)(C)C3)C(=O)N(C)[C@@H](C3CCCC3)C(=O)N(C)[C@H](C(=O)N(C)C)CC(=O)N(C)[C@@H]([C@H](C)OC)C(=O)N[C@@H]([C@@H](C)CC)C(=O)N(C)CC(=O)N(C)[C@H]3C/C=C\CCN(C3=O)[C@@H](Cc3ccc(C(F)(F)F)cc3)C(=O)N(C)CC(=O)N[C@@H](CCc3ccc(C(F)(F)F)c(Cl)c3)C(=O)N2C1 [PP3171] | A (a compound having 10 or more and less than 20 is denoted as A) | A (a compound having 10 or more and less than 20 is denoted as A) |  | 
 |  |  | 0.32 | 74 | CCO[C@@H]1C[C@H]2C(=O)NC3(CCC3)C(=O)N(C)[C@@H](C3CCCC3)C(=O)N(C)[C@H](C(=O)N(C)C)CC(=O)N(C)[C@@H](Cc3cccs3)C(=O)N[C@@H]([C@@H](C)CC)C(=O)N(C)CC(=O)N(C)[C@H]3CCCCCN(C3=O)[C@@H](Cc3ccc(C(F)(F)F)cc3)C(=O)N(C)CC(=O)N[C@@H](CCc3cc(F)c(C(F)(F)F)c(F)c3)C(=O)N2C1 [PP1169] |  |  | B (a compound having 3 or more and less than 10 is denoted as B) | B (a compound having 3 or more and less than 10 is denoted as B)
 |  |  | 0.066 | 16.1 | CCO[C@@H]1C[C@H]2C(=O)NC3(CCC3)C(=O)N(C)[C@@H](C3CCCC3)C(=O)N(C)[C@H](C(=O)N(C)C)CC(=O)N(C)[C@@H](C)C(=O)N[C@@H]([C@@H](C)CC)C(=O)N(C)CC(=O)N(C)[C@H]3CCCCCN(C3=O)[C@@H](Cc3ccc(F)cc3)C(=O)N(C)CC(=O)N[C@@H](CCc3cc(F)c(C(F)(F)F)c(F)c3)C(=O)N2C1 [PP1189] |  |  | B (a compound having 3 or more and less than 10 is denoted as B) | B (a compound having 3 or more and less than 10 is denoted as B)
 | 19.2 | 0.64 |  |  | CCC[C@H]1C(=O)N[C@@H]([C@@H](C)CC)C(=O)N(C2CC2)CC(=O)N(C)[C@H]2C/C(F)=C\CCN(C2=O)[C@@H](Cc2ccc(C(F)(F)F)cc2)C(=O)N(C)CC(=O)N[C@@H](CCc2cc(F)c(C(F)(F)F)c(F)c2)C(=O)N2C[C@H](OCC)C[C@H]2C(=O)NC2(CCC2)C(=O)N(C)[C@@H](C2CCCC2)C(=O)N(C)[C@H](C(=O)N(C)C)CC(=O)N1C [PP3518] | B (a compound having 3 or more and less than 10 is denoted as B) | B (a compound having 3 or more and less than 10 is denoted as B) |  | 
